As usually defined, the Kd is the concentration at which binding is half-saturated.

In patent US20250325711A1, “COVALENT FLUORESCENT PROBES FOR CANNABINOID RECEPTOR 2” (Hoffmann-La Roche Inc., priority 2022, published 2025) one finds Kd data, which are given here for 13 molecules.

Like-named read-outs stand apart in the source and are kept apart here.

The assay has as its target hCB2R (Homo sapiens (Human), UniProt P34972). In words: TR-FRET hCB2R Binding Assay. On the technique in general: Time-resolved FRET reads energy transfer from a long-lived donor to a nearby acceptor.
The mark [1] stands for this setting: SNAP-tagged human CB2R HEK293-TR cell membranes, TR-FRET (HTRF) detection, nonspecific binding with 1 μM SR144528, read-out: Kd hCB2R.

As for `COc1cc(C(C)(C)CCCCCCN=[N+]=[N-])cc(OC)c1[C@H]1C=C(CNC(=O)CCCCCCNC(=O)c2ccc(S(=O)(=O)N(CC#N)C(=O)CCCCCNc3ccc([N+](=O)[O-])c4nonc34)cc2)[C@H]2C[C@@H]1C2(C)C` [Example 10, N-(7-((((1S,4S,5S)-4-(4-(8-azido-2-methyloctan-2-yl)-2,6-dimethoxyphenyl)-6,6-dimethylbicyclo[3.1.1]hept-2-en-2-yl)methyl)amino)-7-oxoheptyl)-4-(N-(cyanomethyl)-N-(6-((7-nitrobenzo[c][1,2,5]oxadiazol-4-yl)amino)hexanoyl)sulfamoyl)benzamide], under setting [1], the Kd turned out to be 3.9 nM.

With `CCCCCCC(C)(C)c1cc(OC)c([C@H]2C=C(CNC(=O)CCCCCCNC(=O)c3ccc(=O)n(S(=O)(=O)c4cccc(C(=O)NCc5cn(CCOCCNc6ccc([N+](=O)[O-])c7nonc67)nn5)c4)c3)[C@H]3C[C@@H]2C3(C)C)c(OC)c1` [Example 3, N-(7-((((1S,4S,5S)-4-(2,6-dimethoxy-4-(2-methyloctan-2-yl)phenyl)-6,6-dimethylbicyclo[3.1.1]hept-2-en-2-yl)methyl)amino)-7-oxoheptyl)-1-((3-(((1-(2-(2-((7-nitrobenzo[c][1,2,5]oxadiazol-4-yl)amino)ethoxy)ethyl)-1H-1,2,3-triazol-4-yl)methyl)carbamoyl)phenyl)sulfonyl)-6-oxo-1,6-dihydropyridine-3-carboxamide], the Kd under setting [1] is 24.2 nM.

Consider `COc1cc(C(C)(C)CCCCCCN=[N+]=[N-])cc(OC)c1[C@H]1C=C(CNC(=O)CCCCCCNC(=O)c2ccc(S(=O)(=O)N(CC#N)C(=O)CCc3cn(CCOCCNc4ccc([N+](=O)[O-])c5nonc45)nn3)cc2)[C@H]2C[C@@H]1C2(C)C` [Example 11, N-(7-((((1S,4S,5S)-4-(4-(8-azido-2-methyloctan-2-yl)-2,6-dimethoxyphenyl)-6,6-dimethylbicyclo[3.1.1]hept-2-en-2-yl)methyl)amino)-7-oxoheptyl)-4-(N-(cyanomethyl)-N-(3-(1-(2-(2-((7-nitrobenzo[c][1,2,5]oxadiazol-4-yl)amino)ethoxy)ethyl)-1H-1,2,3-triazol-4-yl)propanoyl)sulfamoyl)benzamide], for which the equilibrium dissociation constant (Kd) under setting [1] was found to be 152 nM.

Turning to `CCCCCCC(C)(C)c1cc(OC)c([C@H]2C=C(CNC(=O)CCCCCCNC(=O)c3ccc(S(=O)(=O)N(Cc4ccccn4)C(=O)CCCCCNc4ccc([N+](=O)[O-])c5nonc45)cc3)[C@H]3C[C@@H]2C3(C)C)c(OC)c1` [Example 9, N-(7-((((1S,4S,5S)-4-(2,6-dimethoxy-4-(2-methyloctan-2-yl)phenyl)-6,6-dimethylbicyclo[3.1.1]hept-2-en-2-yl)methyl)amino)-7-oxoheptyl)-4-(N-(6-((7-nitrobenzo[c][1,2,5]oxadiazol-4-yl)amino)hexanoyl)-N-(pyridin-2-ylmethyl)sulfamoyl)benzamide], under setting [1], the Kd worked out at 35.5 nM.

With `COc1cc(C(C)(C)CCCCCCN=[N+]=[N-])cc(OC)c1[C@H]1C=C(CNC(=O)CCCCCCNC(=O)c2ccc(S(=O)(=O)N(Cc3ccccn3)C(=O)CCCCCNc3ccc([N+](=O)[O-])c4nonc34)cc2)[C@H]2C[C@@H]1C2(C)C` [Example 8, N-(7-((((1S,4S,5S)-4-(4-(8-azido-2-methyloctan-2-yl)-2,6-dimethoxyphenyl)-6,6-dimethylbicyclo[3.1.1]hept-2-en-2-yl)methyl)amino)-7-oxoheptyl)-4-(N-(6-((7-nitrobenzo[c][1,2,5]oxadiazol-4-yl)amino)hexanoyl)-N-(pyridin-2-ylmethyl)sulfamoyl)benzamide], the Kd under setting [1] came to 12 nM.

Turning to `C#CCCC(=O)N(CC#N)S(=O)(=O)c1ccc(C(=O)NCCCCCCC(=O)NCC2=C[C@H](c3c(OC)cc(C(C)(C)CCCCCCN=[N+]=[N-])cc3OC)[C@@H]3C[C@H]2C3(C)C)cc1` [Example 14, N-(7-((((1S,4S,5S)-4-(4-(8-azido-2-methyloctan-2-yl)-2,6-dimethoxyphenyl)-6,6-dimethylbicyclo[3.1.1]hept-2-en-2-yl)methyl)amino)-7-oxoheptyl)-4-(N-(cyanomethyl)-N-(pent-4-ynoyl)sulfamoyl)benzamide], the Kd under setting [1] amounted to 1.5 nM.

In the case of `COc1cc(C(C)(C)CCCCCCN=[N+]=[N-])cc(OC)c1[C@H]1C=C(CNC(=O)CCCCCCNC(=O)c2ccc(S(=O)(=O)N(CC#N)C(=O)CCc3cn(CCOCCNC(=O)c4ccc5c(c4)C4(OC5=O)c5ccc(N6CCC6)cc5[Si](C)(C)c5cc(N6CCC6)ccc54)nn3)cc2)[C@H]2C[C@@H]1C2(C)C` [Example 13, 3,7-di(azetidin-1-yl)-N-(2-(2-(4-(3-((4-((7-((((1S,4S,5S)-4-(4-(8-azido-2-methyloctan-2-yl)-2,6-dimethoxyphenyl)-6,6-dimethylbicyclo[3.1.1]hept-2-en-2-yl)methyl)amino)-7-oxoheptyl)carbamoyl)-N-(cyanomethyl)phenyl)sulfonamido)-3-oxopropyl)-1H-1,2,3-triazol-1-yl)ethoxy)ethyl)-5,5-dimethyl-3′-oxo-3′H,5H-spiro[dibenzo[b,e]siline-10,1′-isobenzofuran]-6′-carboxamide], under setting [1], the dissociation constant (Kd) stood at 124 nM.

`COc1cc(C(C)(C)CCCCCCN=[N+]=[N-])cc(OC)c1[C@H]1C=C(CNC(=O)CCCCCCNC(=O)c2ccc(=O)n(S(=O)(=O)c3cccc(C(=O)NCc4cn(CCOCCOCCOCCOCCNc5ccc([N+](=O)[O-])c6nonc56)nn4)c3)c2)[C@H]2C[C@@H]1C2(C)C` [Example 4, N-(7-((((1S,4S,5S)-4-(4-(8-azido-2-methyloctan-2-yl)-2,6-dimethoxyphenyl)-6,6-dimethylbicyclo[3.1.1]hept-2-en-2-yl)methyl)amino)-7-oxoheptyl)-1-((3-(((1-(14-((7-nitrobenzo[c][1,2,5]oxadiazol-4-yl)amino)-3,6,9,12-tetraoxatetradecyl)-1H-1,2,3-triazol-4-yl)methyl)carbamoyl)phenyl)sulfonyl)-6-oxo-1,6-dihydropyridine-3-carboxamide]: the dissociation constant Kd under setting [1] stood at 4.5 nM.

In turn, `COc1cc(C(C)(C)CCCCCCN=[N+]=[N-])cc(OC)c1[C@H]1C=C(CNC(=O)CCCCCCCCNC(=O)c2ccc(=O)n(S(=O)(=O)c3cccc(C(=O)NCc4cn(CCOCCNc5ccc([N+](=O)[O-])c6nonc56)nn4)c3)c2)[C@H]2C[C@@H]1C2(C)C` [Example 7, N-(9-((((1S,4S,5S)-4-(4-(8-azido-2-methyloctan-2-yl)-2,6-dimethoxyphenyl)-6,6-dimethylbicyclo[3.1.1]hept-2-en-2-yl)methyl)amino)-9-oxononyl)-1-((3-(((1-(2-(2-((7-nitrobenzo[c][1,2,5]oxadiazol-4-yl)amino)ethoxy)ethyl)-1H-1,2,3-triazol-4-yl)methyl)carbamoyl)phenyl)sulfonyl)-6-oxo-1,6-dihydropyridine-3-carboxamide] had a Kd of 8.9 nM.

As to `COc1cc(C(C)(C)CCCCCCN=[N+]=[N-])cc(OC)c1[C@H]1C=C(CNC(=O)CCCCCCNC(=O)c2ccc(=O)n(S(=O)(=O)c3cccc(C(=O)NCc4cn(CCOCCNc5ccc([N+](=O)[O-])c6nonc56)nn4)c3)c2)[C@H]2C[C@@H]1C2(C)C` [Example 2, N-(7-((((1S,4S,5S)-4-(4-(8-azido-2-methyloctan-2-yl)-2,6-dimethoxyphenyl)-6,6-dimethylbicyclo[3.1.1]hept-2-en-2-yl)methyl)amino)-7-oxoheptyl)-1-((3-(((1-(2-(2-((7-nitrobenzo[c][1,2,5]oxadiazol-4-yl)amino)ethoxy)ethyl)-1H-1,2,3-triazol-4-yl)methyl)carbamoyl)phenyl)sulfonyl)-6-oxo-1,6-dihydropyridine-3-carboxamide], under setting [1], the Kd was 22.9 nM.

Regarding `CCN(CC)c1ccc2cc(C=Cc3ccc(S(=O)(=O)[O-])c[n+]3CCCCCC(=O)NCCOCCn3cc(CNC(=O)c4cccc(S(=O)(=O)n5cc(C(=O)NCCCCCCC(=O)NCC6=C[C@H](c7c(OC)cc(C(C)(C)CCCCCCN=[N+]=[N-])cc7OC)[C@@H]7C[C@H]6C7(C)C)ccc5=O)c4)nn3)c(=O)oc2c1` [Example 5, 1-(6-((2-(2-(4-((3-((5-((7-((((1S,4S,5S)-4-(4-(8-azido-2-methyloctan-2-yl)-2,6-dimethoxyphenyl)-6,6-dimethylbicyclo[3.1.1]hept-2-en-2-yl)methyl)amino)-7-oxoheptyl)carbamoyl)-2-oxopyridin-1 (2H)-yl)sulfonyl)benzamido)methyl)-1H-1,2,3-triazol-1-yl)ethoxy)ethyl)amino)-6-oxohexyl)-6-(2-(7-(diethylamino)-2-oxo-2H-chromen-3-yl)vinyl)pyridin-1-ium-3-sulfonate], the equilibrium dissociation constant (Kd) under setting [1] was found to be 59 nM.

Turning to `CCN(CC)c1ccc2cc(C=Cc3ccc(S(=O)(=O)[O-])c[n+]3CCCCCC(=O)NCCOCCn3cc(CCC(=O)N(CC#N)S(=O)(=O)c4ccc(C(=O)NCCCCCCC(=O)NCC5=C[C@H](c6c(OC)cc(C(C)(C)CCCCCCN=[N+]=[N-])cc6OC)[C@@H]6C[C@H]5C6(C)C)cc4)nn3)c(=O)oc2c1` [Example 12, 1-(6-((2-(2-(4-(3-((4-((7-((((1S,4S,5S)-4-(4-(8-azido-2-methyloctan-2-yl)-2,6-dimethoxyphenyl)-6,6-dimethylbicyclo[3.1.1]hept-2-en-2-yl)methyl)amino)-7-oxoheptyl)carbamoyl)-N-(cyanomethyl)phenyl)sulfonamido)-3-oxopropyl)-1H-1,2,3-triazol-1-yl)ethoxy)ethyl)amino)-6-oxohexyl)-6-(2-(7-(diethylamino)-2-oxo-2H-chromen-3-yl)vinyl)pyridin-1-ium-3-sulfonate], the Kd under setting [1] came to 25 nM.

Consider `COc1cc(C(C)(C)CCCCCCN=[N+]=[N-])cc(OC)c1[C@H]1C=C(CNC(=O)CCCCNC(=O)c2ccc(=O)n(S(=O)(=O)c3cccc(C(=O)NCCc4cn(CCOCCNc5ccc([N+](=O)[O-])c6nonc56)nn4)c3)c2)[C@H]2C[C@@H]1C2(C)C` [Example 1, N-(5-((((1S,4S,5S)-4-(4-(8-azido-2-methyloctan-2-yl)-2,6-dimethoxyphenyl)-6,6-dimethylbicyclo[3.1.1]hept-2-en-2-yl)methyl)amino)-5-oxopentyl)-1-((3-((2-(1-(2-(2-((7-nitrobenzo[c][1,2,5]oxadiazol-4-yl)amino)ethoxy)ethyl)-1H-1,2,3-triazol-4-yl)ethyl)carbamoyl)phenyl)sulfonyl)-6-oxo-1,6-dihydropyridine-3-carboxamide], for which the Kd under setting [1] amounted to 9.1 nM.
